Data: PubChem BioAssay (NCI)
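Each compound was tested at five concentrations against cells in 96-well plates for 48 hours. GI50: concentration for 50% inhibition of growth. TGI marks complete inhibition of growth.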

How the values were obtained:
Assay in all cases: NCI anticancer screen, dose series, 48 h
SK-OV-3 ovarian = system: SK-OV-3 ovarian
HCT-116 colon = system: HCT-116 colon
CAKI-1 renal = system: CAKI-1 renal
A498 renal = system: A498 renal
NCI-H226 lung = system: NCI-H226 lung
SR leukemia = system: SR leukemia
NCI-H23 lung = system: NCI-H23 lung
SF-539 CNS = system: SF-539 CNS
T-47D breast = system: T-47D breast
HT29 colon = system: HT29 colon
NCI-H522 lung = system: NCI-H522 lung
HCT-15 colon = system: HCT-15 colon
SW-620 colon = system: SW-620 colon
SNB-19 CNS = system: SNB-19 CNS
MDA-MB-468 breast = system: MDA-MB-468 breast
OVCAR-3 ovarian = system: OVCAR-3 ovarian
UACC-62 melanoma = system: UACC-62 melanoma
NCI-H460 lung = system: NCI-H460 lung
OVCAR-8 ovarian = system: OVCAR-8 ovarian
SNB-75 CNS = system: SNB-75 CNS
DU-145 prostate = system: DU-145 prostate
SF-295 CNS = system: SF-295 CNS
NCI/ADR-RES ovarian = system: NCI/ADR-RES ovarian
U251 CNS = system: U251 CNS
UO-31 renal = system: UO-31 renal
MDA-MB-231 breast = system: MDA-MB-231 breast
786-0 renal = system: 786-0 renal
HOP-62 NSCLC = system: HOP-62 NSCLC
HS 578T breast = system: HS 578T breast
SK-MEL-5 melanoma = system: SK-MEL-5 melanoma
COLO 205 colon = system: COLO 205 colon
EKVX NSCLC = system: EKVX NSCLC
UACC-257 melanoma = system: UACC-257 melanoma
RXF 393 renal = system: RXF 393 renal
HL-60(TB) leukemia = system: HL-60(TB) leukemia
MCF7 breast = system: MCF7 breast
A549 NSCLC = system: A549 NSCLC
MALME-3M melanoma = system: MALME-3M melanoma
CCRF-CEM leukemia = system: CCRF-CEM leukemia
MDA-MB-435 = system: MDA-MB-435
MOLT-4 leukemia = system: MOLT-4 leukemia
M14 melanoma = system: M14 melanoma
PC-3 prostate = system: PC-3 prostate
HCC-2998 colon = system: HCC-2998 colon
LOX IMVI melanoma = system: LOX IMVI melanoma
SK-MEL-28 melanoma = system: SK-MEL-28 melanoma
IGROV1 ovarian = system: IGROV1 ovarian
OVCAR-5 ovarian = system: OVCAR-5 ovarian
ACHN renal = system: ACHN renal
SF-268 CNS = system: SF-268 CNS
HOP-92 NSCLC = system: HOP-92 NSCLC
SK-MEL-2 melanoma = system: SK-MEL-2 melanoma
K-562 leukemia = system: K-562 leukemia
RPMI-8226 leukemia = system: RPMI-8226 leukemia
TK-10 renal = system: TK-10 renal
BT-549 breast = system: BT-549 breast
OVCAR-4 ovarian = system: OVCAR-4 ovarian
SN12C renal = system: SN12C renal
KM12 colon = system: KM12 colon

C=C1CCC2C3(C)COC(c4cccc(F)c4)OC3CCC2(C)C1C/C=C1/C(=O)OCC1O (stereo not drawn)
GI50 (SK-OV-3 ovarian): 16.1 µM
TGI (SK-OV-3 ovarian): 29.9 µM
GI50 (HCT-116 colon): 1.85 µM
TGI (HCT-116 colon): 3.62 µM
GI50 (CAKI-1 renal): 7.43 µM
TGI (CAKI-1 renal): 20.2 µM
GI50 (A498 renal): 14.1 µM
TGI (A498 renal): 27.7 µM
GI50 (NCI-H226 lung): 1.85 µM
TGI (NCI-H226 lung): 3.87 µM
GI50 (SR leukemia): 3.52 µM
TGI (SR leukemia): 17.7 µM
GI50 (NCI-H23 lung): 11 µM
TGI (NCI-H23 lung): 24.2 µM
GI50 (SF-539 CNS): 1.96 µM
TGI (SF-539 CNS): 3.81 µM
GI50 (T-47D breast): 3.61 µM
TGI (T-47D breast): 16 µM
GI50 (HT29 colon): 2.19 µM
TGI (HT29 colon): 4.75 µM
GI50 (NCI-H522 lung): 1.71 µM
TGI (NCI-H522 lung): 4 µM
GI50 (HCT-15 colon): 2.61 µM
TGI (HCT-15 colon): 8.15 µM
GI50 (SW-620 colon): 1.48 µM
TGI (SW-620 colon): 3.26 µM
GI50 (SNB-19 CNS): 13.1 µM
TGI (SNB-19 CNS): 25.9 µM
GI50 (MDA-MB-468 breast): 2.11 µM
TGI (MDA-MB-468 breast): 6.28 µM
GI50 (OVCAR-3 ovarian): 1.87 µM
TGI (OVCAR-3 ovarian): 4.08 µM
GI50 (UACC-62 melanoma): 4.68 µM
TGI (UACC-62 melanoma): 16.9 µM
GI50 (NCI-H460 lung): 4.03 µM
TGI (NCI-H460 lung): 18.6 µM
GI50 (OVCAR-8 ovarian): 1.86 µM
TGI (OVCAR-8 ovarian): 4.27 µM
GI50 (SNB-75 CNS): 2.13 µM
TGI (SNB-75 CNS): 10.8 µM
GI50 (DU-145 prostate): 6.21 µM
TGI (DU-145 prostate): 18.5 µM
GI50 (SF-295 CNS): 3.87 µM
TGI (SF-295 CNS): 15.1 µM
GI50 (NCI/ADR-RES ovarian): 1.98 µM
TGI (NCI/ADR-RES ovarian): 4.08 µM
GI50 (U251 CNS): 2.25 µM
TGI (U251 CNS): 6.24 µM
GI50 (UO-31 renal): 5.14 µM
TGI (UO-31 renal): 18.2 µM
GI50 (MDA-MB-231 breast): 2.61 µM
TGI (MDA-MB-231 breast): 7.25 µM
GI50 (786-0 renal): 2.69 µM
TGI (786-0 renal): 7.51 µM
GI50 (HOP-62 NSCLC): 17.3 µM
TGI (HOP-62 NSCLC): 31.6 µM
GI50 (HS 578T breast): 4.62 µM
TGI (HS 578T breast): 39.7 µM
GI50 (SK-MEL-5 melanoma): 11 µM
TGI (SK-MEL-5 melanoma): 23 µM
GI50 (COLO 205 colon): 4.09 µM
TGI (COLO 205 colon): 15.6 µM
GI50 (EKVX NSCLC): 16.5 µM
TGI (EKVX NSCLC): 30.8 µM
GI50 (UACC-257 melanoma): 5.51 µM
TGI (UACC-257 melanoma): 19.7 µM
GI50 (RXF 393 renal): 5.88 µM
TGI (RXF 393 renal): 19.6 µM
GI50 (HL-60(TB) leukemia): 1.98 µM
TGI (HL-60(TB) leukemia): 6.83 µM
GI50 (MCF7 breast): 2.25 µM
TGI (MCF7 breast): 7.71 µM
GI50 (A549 NSCLC): 7.04 µM
TGI (A549 NSCLC): 22.7 µM
GI50 (MALME-3M melanoma): 13.2 µM
TGI (MALME-3M melanoma): 26.2 µM
GI50 (CCRF-CEM leukemia): 2.35 µM
TGI (CCRF-CEM leukemia): 7.34 µM
GI50 (MDA-MB-435): 2.61 µM
TGI (MDA-MB-435): 9.71 µM
GI50 (MOLT-4 leukemia): 3.24 µM
TGI (MOLT-4 leukemia): 12 µM
GI50 (M14 melanoma): 6.93 µM
TGI (M14 melanoma): 21.3 µM
GI50 (PC-3 prostate): 3.3 µM
TGI (PC-3 prostate): 15.3 µM
GI50 (HCC-2998 colon): 8.09 µM
TGI (HCC-2998 colon): 20.9 µM
GI50 (LOX IMVI melanoma): 1.67 µM
TGI (LOX IMVI melanoma): 3.08 µM
GI50 (SK-MEL-28 melanoma): 5.58 µM
TGI (SK-MEL-28 melanoma): 18 µM
GI50 (IGROV1 ovarian): 10.3 µM
TGI (IGROV1 ovarian): 23.2 µM
GI50 (OVCAR-5 ovarian): 4.04 µM
TGI (OVCAR-5 ovarian): 15.9 µM
GI50 (ACHN renal): 4.48 µM
TGI (ACHN renal): 15.8 µM
GI50 (SF-268 CNS): 6 µM
TGI (SF-268 CNS): 19.8 µM
GI50 (HOP-92 NSCLC): 6.48 µM
TGI (HOP-92 NSCLC): 21.2 µM
GI50 (SK-MEL-2 melanoma): 5.95 µM
TGI (SK-MEL-2 melanoma): 19.1 µM
GI50 (K-562 leukemia): 3.39 µM
TGI (K-562 leukemia): 16.1 µM
GI50 (RPMI-8226 leukemia): 2.58 µM
TGI (RPMI-8226 leukemia): 6.78 µM
GI50 (TK-10 renal): 14.8 µM
TGI (TK-10 renal): 28.2 µM
GI50 (BT-549 breast): 2.7 µM
TGI (BT-549 breast): 7.09 µM
GI50 (OVCAR-4 ovarian): 4.32 µM
TGI (OVCAR-4 ovarian): 18.3 µM
GI50 (SN12C renal): 2.95 µM
TGI (SN12C renal): 9.4 µM
GI50 (KM12 colon): 3.92 µM
TGI (KM12 colon): 14.8 µM
